# In US10125129B2 (priority 2016, dated 2018):
# Target: T1, μ opioid receptor (MOR) (Homo sapiens, UniProt P35372)
# T1 construct: expressed in transfected cells
# Assay: cell-based
# Type: cell-based
# Details: Series 1 EC50
# T1 sequence (P35372 whole entry): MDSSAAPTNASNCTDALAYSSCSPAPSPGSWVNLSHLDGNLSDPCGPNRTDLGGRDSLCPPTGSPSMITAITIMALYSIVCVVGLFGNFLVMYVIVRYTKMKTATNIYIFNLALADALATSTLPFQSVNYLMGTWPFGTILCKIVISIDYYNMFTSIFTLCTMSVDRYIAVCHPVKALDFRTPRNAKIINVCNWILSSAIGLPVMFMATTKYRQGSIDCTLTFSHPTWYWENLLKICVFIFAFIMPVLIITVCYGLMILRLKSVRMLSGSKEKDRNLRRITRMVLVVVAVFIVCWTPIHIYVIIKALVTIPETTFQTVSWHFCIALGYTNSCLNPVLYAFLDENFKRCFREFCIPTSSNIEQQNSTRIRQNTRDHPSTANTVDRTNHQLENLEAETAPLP
row,Compound,EC50
1,COC(=O)[C@@H]1C[C@H](OC(=O)c2ccccc2[N+](=O)[O-])C(=O)[C@H]2[C@@]1(C)CC[C@H]1C(=O)O[C@H](c3ccoc3)C[C@]21C [Series 1 Entry 2],2000 ± 1000 nM
2,COC(=O)[C@@H]1C[C@H](OC(=O)c2cccc([N+](=O)[O-])c2)C(=O)[C@H]2[C@@]1(C)CC[C@H]1C(=O)O[C@H](c3ccoc3)C[C@]21C [Series 1 Entry 3],3500 ± 200 nM
3,"COC(=O)[C@@H]1C[C@H](OC(=O)c2ccccc2Cl)C(=O)[C@H]2[C@@]1(C)CC[C@H]1C(=O)O[C@H](c3ccoc3)C[C@]21C [Series 1 Entry 5, (2S,4aR,6aR,7R,9S,10aS,10bR)-Methyl 9-((2-chlorobenzoyl)oxy)-2-(furan-3-yl)-6a,10b-dimethyl-4,10-dioxododecahydro-1H-benzo[f]isochromene-7-carboxylate]",3400 ± 200 nM
4,"COC(=O)[C@@H]1C[C@H](OC(=O)c2cccc(Cl)c2)C(=O)[C@H]2[C@@]1(C)CC[C@H]1C(=O)O[C@H](c3ccoc3)C[C@]21C [Series 1 Entry 6, (2S,4aR,6aR,7R,9S,10aS,10bR)-Methyl 9-((3-chlorobenzoyl)oxy)-2-(furan-3-yl)-6a,10b-dimethyl-4,10-dioxododecahydro-1H-benzo[f]isochromene-7-carboxylate]",2400 ± 100 nM
5,"COC(=O)[C@@H]1C[C@H](OC(=O)c2ccc(Cl)cc2)C(=O)[C@H]2[C@@]1(C)CC[C@H]1C(=O)O[C@H](c3ccoc3)C[C@]21C [Series 1 Entry 7, (2S,4aR,6aR,7R,9S,10aS,10bR)-Methyl 9-((4-chlorobenzoyl)oxy)-2-(furan-3-yl)-6a,10b-dimethyl-4,10-dioxododecahydro-1H-benzo[f]isochromene-7-carboxylate]",700 ± 100 nM
6,"COC(=O)[C@@H]1C[C@H](OC(=O)c2ccccc2F)C(=O)[C@H]2[C@@]1(C)CC[C@H]1C(=O)O[C@H](c3ccoc3)C[C@]21C [Series 1 Entry 8, (2S,4aR,6aR,7R,9S,10aS,10bR)-Methyl 9-((2-fluorobenzoyl)oxy)-2-(furan-3-yl)-6a,10b-dimethyl-4,10-dioxododecahydro-1H-benzo[f]isochromene-7-carboxylate]",400 ± 100 nM
7,"COC(=O)[C@@H]1C[C@H](OC(=O)c2cccc(F)c2)C(=O)[C@H]2[C@@]1(C)CC[C@H]1C(=O)O[C@H](c3ccoc3)C[C@]21C [Series 1 Entry 9, (2S,4aR,6aR,7R,9S,10aS,10bR)-Methyl 9-((3-fluorobenzoyl)oxy)-2-(furan-3-yl)-6a,10b-dimethyl-4,10-dioxododecahydro-1H-benzo[f]isochromene-7-carboxylate]",460 ± 80 nM
8,"COC(=O)[C@@H]1C[C@H](OC(=O)c2ccc(F)cc2)C(=O)[C@H]2[C@@]1(C)CC[C@H]1C(=O)O[C@H](c3ccoc3)C[C@]21C [Series 1 Entry 10, (2S,4aR,6aR,7R,9S,10aS,10bR)-Methyl 9-((4-fluorobenzoyl)oxy)-2-(furan-3-yl)-6a,10b-dimethyl-4,10-dioxododecahydro-1H-benzo[f]isochromene-7-carboxylate]",800 ± 200 nM
9,"COC(=O)[C@@H]1C[C@H](OC(=O)c2ccccc2C)C(=O)[C@H]2[C@@]1(C)CC[C@H]1C(=O)O[C@H](c3ccoc3)C[C@]21C [Series 1 Entry 11, (2S,4aR,6aR,7R,9S,10aS,10bR)-Methyl 2-(furan-3-yl)-6a,10b-dimethyl-9-((2-methylbenzoyl)oxy)-4,10-dioxododecahydro-1H-benzo[f]isochromene-7-carboxylate]",1600 ± 400 nM
10,"COC(=O)[C@@H]1C[C@H](OC(=O)c2cccc(C)c2)C(=O)[C@H]2[C@@]1(C)CC[C@H]1C(=O)O[C@H](c3ccoc3)C[C@]21C [Series 1 Entry 12, (2S,4aR,6aR,7R,9S,10aS,10bR)-Methyl 2-(furan-3-yl)-6a,10b-dimethyl-9-((3-methylbenzoyl)oxy)-4,10-dioxododecahydro-1H-benzo[f]isochromene-7-carboxylate]",1800 ± 300 nM
11,"COC(=O)[C@@H]1C[C@H](OC(=O)c2ccc(C)cc2)C(=O)[C@H]2[C@@]1(C)CC[C@H]1C(=O)O[C@H](c3ccoc3)C[C@]21C [Series 1 Entry 13, (2S,4aR,6aR,7R,9S,10aS,10bR)-Methyl 2-(furan-3-yl)-6a,10b-dimethyl-9-((4-methylbenzoyl)oxy)-4,10-dioxododecahydro-1H-benzo[f]isochromene-7-carboxylate]",430 ± 10 nM
12,COC(=O)[C@@H]1C[C@H](OC(=O)c2ccccc2OC)C(=O)[C@H]2[C@@]1(C)CC[C@H]1C(=O)O[C@H](c3ccoc3)C[C@]21C [Series 1 Entry 14],3300 ± 300 nM
13,COC(=O)[C@@H]1C[C@H](OC(=O)c2cccc(OC)c2)C(=O)[C@H]2[C@@]1(C)CC[C@H]1C(=O)O[C@H](c3ccoc3)C[C@]21C [Series 1 Entry 15],330 ± 20 nM
14,"COC(=O)[C@@H]1C[C@H](OC(=O)c2ccccn2)C(=O)[C@H]2[C@@]1(C)CC[C@H]1C(=O)O[C@H](c3ccoc3)C[C@]21C [Series 1 Entry 17, (2S,4aR,6aR,7R,9S,10aS,10bR)-2-(furan-3-yl)-7-(methoxycarbonyl)-6a,10b-dimethyl-4,10-dioxododecahydro-2H-benzo[f]isochromen-9-yl picolinate]",> 50000 nM
15,COC(=O)[C@@H]1C[C@H](OC(=O)c2cccnc2)C(=O)[C@H]2[C@@]1(C)CC[C@H]1C(=O)O[C@H](c3ccoc3)C[C@]21C [Series 1 Entry 18],240 ± 20 nM
16,"COC(=O)[C@@H]1C[C@H](OC(=O)c2ccncc2)C(=O)[C@H]2[C@@]1(C)CC[C@H]1C(=O)O[C@H](c3ccoc3)C[C@]21C [Series 1 Entry 19, (2S,4aR,6aR,7R,9S,10aS,10bR)-2-(furan-3-yl)-7-(methoxycarbonyl)-6a,10b-dimethyl-4,10-dioxododecahydro-2H-benzo[f]isochromen-9-yl isonicotinate]",340 ± 10 nM
17,COC(=O)[C@@H]1C[C@H](OC(=O)c2cccs2)C(=O)[C@H]2[C@@]1(C)CC[C@H]1C(=O)O[C@H](c3ccoc3)C[C@]21C [Series 1 Entry 20],330 ± 70 nM

# Same assay, conditions: Series 2 EC50
row,Compound,EC50
1,"COC(=O)[C@@H]1C=C(OC(=O)c2ccccc2[N+](=O)[O-])C(=O)[C@H]2[C@@]1(C)CC[C@H]1C(=O)O[C@H](c3ccoc3)C[C@]21C [Series 2 Entry 2, (2S,4aR,6aR,7R,10aR,10bR)-Methyl 2-(furan-3-yl)-6a,10b-dimethyl-9-((2-nitrobenzoyl)oxy)-4,10-dioxo-2,4,4a,5,6,6a,7,10,10a-decahydro-1H-benzo[f]isochromene-7-carboxylate]",1900 ± 600 nM
2,"COC(=O)[C@@H]1C=C(OC(=O)c2cccc([N+](=O)[O-])c2)C(=O)[C@H]2[C@@]1(C)CC[C@H]1C(=O)O[C@H](c3ccoc3)C[C@]21C [Series 2 Entry 3, (2S,4aR,6aR,7R,10aR,10bR)-Methyl 2-(furan-3-yl)-6a,10b-dimethyl-9-((3-nitrobenzoyl)oxy)-4,10-dioxo-2,4,4a,5,6,6a,7,10,10a,10b-decahydro-1H-benzo[f]isochromene-7-carboxylate]",320 ± 10 nM

# Same assay, conditions: read-out: Series 2 EC50
row,Compound,EC50
1,"COC(=O)[C@@H]1C=C(OC(=O)c2ccc([N+](=O)[O-])cc2)C(=O)[C@H]2[C@@]1(C)CC[C@H]1C(=O)O[C@H](c3ccoc3)C[C@]21C [Series 2 Entry 4, (2S,4aR,6aR,7R,10aR,10bR)-Methyl 2-(furan-3-yl)-6a,10b-dimethyl-9-((4-nitrobenzoyl)oxy)-4,10-dioxo-2,4,4a,5,6,6a,7,10,10a,10b-decahydro-1H-benzo[f]isochromene-7-carboxylate]",31 ± 2 nM
